From ChEMBL document CHEMBL6178021, “Optimization of Tambjamines Active against Multiple Stages of Malaria Parasites” (J Med Chem, 2025)
Converted amounts (≈) assume the structure as drawn.

What was measured:
Plasmodium falciparum [1] = assay: microbe, parasite or virus in culture; conditions: D6, 72 h
Description: Antiplasmodial activity against asexual blood-stage Plasmodium falciparum D6 using 2% haematocrit and 0.2% parasitemia assessed as reduction in fluorescence measured after 72 hrs by Malaria SYBR Green I-based Fluorescence (MSF) assay

Plasmodium falciparum [2] = assay: Antiplasmodial activity against asexual blood-stage Plasmodium falciparum Tm90-C2B using 2% haematocrit and 0.2% parasitemia assessed as reduction in fluorescence measured after 72 hrs by Malaria SYBR Green I-based Fluorescence (MSF) assay; type: functional, organism-based
Plasmodium falciparum [3] = assay: microbe, parasite or virus in culture; conditions: Dd2, 72 h
Description: Antiplasmodial activity against asexual blood-stage Plasmodium falciparum Dd2 using 2% haematocrit and 0.2% parasitemia assessed as reduction in fluorescence measured after 72 hrs by Malaria SYBR Green I-based Fluorescence (MSF) assay

in vitro [4] = conditions: mouse, liver microsomes
[5] = Solubility of the compound in potassium phosphate buffer at pH 7.4 by UV-vis spectroscopy; conditions: buffer
MDR1 (human) [6] = assay: Apparent permeability across apical to basolateral side in MDCK transfected with human MDR1 cells incubated for 1 hr by LC-MS analysis; conditions: dog, MDCK-MDR1
HepG2 = assay: Cytotoxicity against human HepG2 cells assessed as cell viability measured after 48 hrs by MTT assay; type: toxicity, cell-based; conditions: hepg2
in vitro [7] = conditions: human, liver microsomes
Plasmodium yoelii = assay: Antimalarial activity against erythrocytic Plasmodium yoelii MRA-428 infected in CF1 mouse assessed as reduction in parasitemia at 10 mg/kg, po once daily for 4 days measured on day 5; type: functional; design: scale not given: the % may be the effect or the level left; conditions: time 4 day
[8] = Metabolic stability in human liver microsomes assessed as half life measured up to 60 mins by LC/MS analysis; type: ADME, Microsome
[9] = Metabolic stability in mouse liver microsomes assessed as half life measured up to 60 mins by LC/MS analysis; type: ADME, Microsome
MDR1 (human) [10] = assay: Apparent permeability across basolateral to apical side in MDCK transfected with human MDR1 cells incubated for 1 hr by LC-MS analysis; conditions: dog, MDCK-MDR1

IC50 (Plasmodium falciparum [1]) [nM]	IC50 (Plasmodium falciparum [2]) [nM]	IC50 (Plasmodium falciparum [3]) [nM]	Structure (SMILES)	microsomal CLint at 1 h (in vitro [4]) [µL/min/mg]	solubility [5] [µM]	Papp A→B at 1 h (MDR1 (human) [6]) [×10⁻⁶ cm/s]	IC50 (HepG2) [nM]	microsomal CLint at 1 h (in vitro [7]) [µL/min/mg]	Activity (Plasmodium yoelii) [%]	half-life [8] [h]	half-life [9] [h]	Papp B→A at 1 h (MDR1 (human) [10]) [×10⁻⁶ cm/s]
> 2500	> 2500	> 2500	CCC1=C(CC)/C(=C/NC2CCCCC2)N=C1c1cc2ccccc2[nH]1									
412	351	359	C(/NC12C[C@H]3C[C@@H](C1)C[C@@H](C2)C3)=C1/N=C(c2ccc[nH]2)C(c2ccccc2)=C1c1ccccc1									
2070	1400	774	CCC1=C(CC)/C(=C/NC23C[C@H]4C[C@@H](C2)C[C@@H](C3)C4)N=C1c1ccccc1OCCN(CC)CC									
> 2500	> 2500	> 2500	CCC1=C(CC)/C(=C/NC23C[C@H]4C[C@@H](C2)C[C@@H](C3)C4)N=C1c1ccccc1F									
> 2500	1730	2440	CCC1=C(CC)/C(=C/NC23C[C@H]4C[C@@H](C2)C[C@@H](C3)C4)N=C1c1ccccc1OCCN(C)C									
	912	753	CCc1c(CNC23CC4CC(CC(C4)C2)C3)[nH]c(-c2ccc[nH]2)c1CC									
397	818	> 2500	CCC1=C(CC)/C(=C/NC23C[C@H]4C[C@@H](C2)C[C@@H](C3)C4)N=C1c1ccc(C#N)[nH]1									
> 2500	> 2500	> 2500	CCc1c(C(=O)NC23C[C@H]4C[C@@H](C2)C[C@@H](C3)C4)[nH]c(-c2ccc[nH]2)c1CC									
> 2500	> 2500	> 2500	CCc1c(C(=O)NC2CCCCC2)[nH]c(-c2ccc(C)[nH]2)c1CC									
> 2500	> 2500	> 2500	CCc1c(C(=O)NC2CCCCC2)[nH]c(-c2ccc[nH]2)c1CC									
> 2500	> 2500	> 2500	CCc1ccc(-c2[nH]c(C(=O)NC3CCCCC3)c(CC)c2CC)[nH]1									
> 2500	> 2500	> 2500	CCC1=C(CC)/C(=C/NC2CCCCC2)N=C1c1ccn[nH]1									

Structure (SMILES)	IC50 (Plasmodium falciparum [1]) [nM]	IC50 (Plasmodium falciparum [2]) [nM]	IC50 (Plasmodium falciparum [3]) [nM]	microsomal CLint at 1 h (in vitro [4]) [µL/min/mg]	solubility [5] [µM]	Papp A→B at 1 h (MDR1 (human) [6]) [×10⁻⁶ cm/s]	IC50 (HepG2) [nM]	microsomal CLint at 1 h (in vitro [7]) [µL/min/mg]	Activity (Plasmodium yoelii) [%]	half-life [8] [h]	half-life [9] [h]	Papp B→A at 1 h (MDR1 (human) [10]) [×10⁻⁶ cm/s]
COc1ccc(OC2=C(Oc3ccc(OC)cc3)/C(=C/NC3CCCCC3)N=C2c2ccc[nH]2)cc1	1220	1650	1470									
CCC1=C(CC)/C(=C/NC2CCCCCC2)N=C1c1ccc(-c2ccc(OC)cc2)[nH]1	19.4	16.6	25.4	96.1	45.7 (≈ 19.1 µg/mL)	0.045	3400	164	4.62	0.141	0.242	0.013
CCC1=C(CC)/C(=C/NC2CCCCCCC2)N=C1c1ccc(Cl)[nH]1	186	101	99.1	12.4	5.37 (≈ 1.93 µg/mL)	0.28	12300	10.1		> 1	> 1	0.04
C(/NC1CCCCCC1)=C1/N=C(c2ccc[nH]2)C(c2ccccc2)=C1c1ccccc1		2110	1000									
COc1ccc(OC2=C(Oc3ccc(OC)cc3)/C(=C/NC3CCCCCC3)N=C2c2ccc[nH]2)cc1	1490	2170	1740									
C(/NC1CCCCCC1)=C1/N=C(c2ccc[nH]2)C(Oc2ccccc2)=C1Oc1ccccc1	> 2500	> 2500	> 2500									
COc1ccc(C2=C(c3ccc(OC)cc3)/C(=C/NC3CCCCCC3)N=C2c2ccc[nH]2)cc1		131	330									
CCC1=C(CC)/C(=C/NC2CCCCCCC2)N=C1c1ccc(-c2ccc(OC)cc2)[nH]1	14.5	25.4	22.5		< 3.125	0.054	4960		0	> 1	> 1	0.012
CCC1=C(CC)/C(=C/NC2CCCCC2)N=C1c1ccccc1OCCN(C)C	> 2500	> 2500	1380									
CCC1=C(CC)/C(=C/NC2CCCCCCC2)N=C1c1ccc(Cc2ccc(OC)cc2)[nH]1		13	10.8		< 3.125	0.074	4310		0	> 1	> 1	0.12
